Results as given in patent publication US8710233B2 (Gruenenthal GmbH, priority 2005, dated 2014).
Read-outs that look alike come from different tables or passages of the source.

Experiments:
Format in all cases: cell-based
VR1/TRPV1 receptor = VR1/TRPV1 receptor (Homo sapiens, UniProt Q8NER1); experiment: IC50 (human) after pH stimulus; details: for inhibition at 1 µM: ne = no effect
[1] = target: T1, vanilloid receptor 1 (VR1/TRPV1) of the rat species (Rattus norvegicus, UniProt O35433); experiment: FLIPR Ca2+ influx assay on rat dorsal root ganglia cells (pharmacological method I)
T1 construct: The spinal column is removed from decapitated rats; from tissue; host or cells: primary cells dissociated from rat dorsal root ganglia
Summary of the method: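 Primary rat dorsal root ganglion cells loaded with 2 μM Fluo-4, Ca2+ influx read on FLIPR as peak fluorescence. Triplicates, at least 3 independent experiments.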

vanilloid receptor (VR1) = target: T2, vanilloid receptor (VR1) (Homo sapiens, UniProt Q8NER1); experiment: FLIPR Ca2+ influx assay on CHO K1 cells transfected with the VR1 gene (pharmacological method II)
T2 construct: expressed in transfected cells; host or cells: CHO K1 cells (ECACC), stably transfected

[2] = table 4, capsaicin, read-out: Ki (rat) Cap.
[3] = table 4, capsaicin, read-out: Ki (human) Cap.
[4] = read-out: inhibition in percent, IC50 (human) after pH stimulus
[5] = Table 2, displacement of capsaicin (100 nM), Cheng-Prusoff, read-out: Ki (human)

VR1/TRPV1 receptor, sequence (Q8NER1 whole entry): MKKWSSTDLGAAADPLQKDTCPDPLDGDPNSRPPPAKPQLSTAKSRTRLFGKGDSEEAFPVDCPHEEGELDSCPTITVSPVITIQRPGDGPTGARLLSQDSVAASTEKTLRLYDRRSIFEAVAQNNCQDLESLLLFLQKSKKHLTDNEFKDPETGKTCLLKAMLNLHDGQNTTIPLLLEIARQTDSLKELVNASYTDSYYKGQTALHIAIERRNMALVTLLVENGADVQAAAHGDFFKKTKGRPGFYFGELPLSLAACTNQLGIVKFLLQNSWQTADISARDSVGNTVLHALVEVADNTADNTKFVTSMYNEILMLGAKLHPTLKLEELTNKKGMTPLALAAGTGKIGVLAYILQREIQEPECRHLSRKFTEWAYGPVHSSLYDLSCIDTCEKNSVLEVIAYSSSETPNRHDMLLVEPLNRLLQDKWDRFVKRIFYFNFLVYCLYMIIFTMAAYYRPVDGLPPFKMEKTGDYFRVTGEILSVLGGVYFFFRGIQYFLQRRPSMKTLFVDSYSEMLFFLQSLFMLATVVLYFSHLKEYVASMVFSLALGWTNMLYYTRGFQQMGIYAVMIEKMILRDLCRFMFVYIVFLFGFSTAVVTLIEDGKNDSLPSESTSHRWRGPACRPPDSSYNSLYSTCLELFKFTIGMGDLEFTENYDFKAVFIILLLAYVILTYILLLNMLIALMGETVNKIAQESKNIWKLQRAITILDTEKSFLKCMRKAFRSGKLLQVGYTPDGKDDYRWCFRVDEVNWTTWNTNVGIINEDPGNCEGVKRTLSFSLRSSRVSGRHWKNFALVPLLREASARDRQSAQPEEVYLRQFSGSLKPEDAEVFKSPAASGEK
T2 sequence (Q8NER1 whole entry): as above
T1 sequence (O35433 whole entry): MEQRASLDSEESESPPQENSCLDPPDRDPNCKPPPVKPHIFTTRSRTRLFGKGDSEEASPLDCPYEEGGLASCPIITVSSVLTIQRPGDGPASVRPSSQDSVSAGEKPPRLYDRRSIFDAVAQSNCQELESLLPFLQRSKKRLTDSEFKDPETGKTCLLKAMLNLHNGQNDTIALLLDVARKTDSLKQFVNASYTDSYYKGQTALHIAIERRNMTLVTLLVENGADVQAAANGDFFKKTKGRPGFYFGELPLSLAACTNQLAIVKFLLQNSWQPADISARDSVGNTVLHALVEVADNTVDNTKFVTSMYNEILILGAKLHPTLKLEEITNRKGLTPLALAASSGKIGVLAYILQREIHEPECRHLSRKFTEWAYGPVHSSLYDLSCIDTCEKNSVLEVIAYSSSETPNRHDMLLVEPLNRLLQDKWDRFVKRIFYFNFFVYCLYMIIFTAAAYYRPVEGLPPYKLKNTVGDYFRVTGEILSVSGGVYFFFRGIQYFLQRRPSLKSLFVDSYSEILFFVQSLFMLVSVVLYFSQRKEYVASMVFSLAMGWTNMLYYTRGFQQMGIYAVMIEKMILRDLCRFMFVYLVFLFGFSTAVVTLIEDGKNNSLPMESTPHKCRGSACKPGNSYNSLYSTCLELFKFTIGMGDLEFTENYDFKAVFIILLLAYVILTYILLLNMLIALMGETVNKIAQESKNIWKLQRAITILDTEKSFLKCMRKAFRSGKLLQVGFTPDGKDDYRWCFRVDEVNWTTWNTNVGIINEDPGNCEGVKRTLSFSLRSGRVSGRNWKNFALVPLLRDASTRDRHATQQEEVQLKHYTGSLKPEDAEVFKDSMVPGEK

| SMILES | IC50 (VR1/TRPV1 receptor; table 4) | Ki [1, 2] | Ki (vanilloid receptor (VR1); [3]) | inhibition at 1 µM (VR1/TRPV1 receptor; [4]) | further results |
| --- | --- | --- | --- | --- | --- |
| CC(C(=O)NCc1ccc(C(F)(F)F)nc1N1CCC(c2ccc(F)cc2)CC1)c1ccc(NS(C)(=O)=O)c(F)c1 (stereo not shown) [Example 200, 2-(3-fluoro-4-methylsulfonamido-phenyl)-N-[4-(4-fluoro-phenyl)-6′-trifluoromethyl-3,4,5,6-tetrahydro-2H-[1,2′]bipyridinyl-3′-ylmethyl]-propionamide] | 81 nM | 3.4 nM | 4.2 nM |  |  |
| CC(C(=O)NCc1ccc(C(F)(F)F)nc1N1CCC(OC(=O)C(C)(C)C)CC1)c1ccc(NS(C)(=O)=O)c(F)c1 (stereo not shown) [Example 226, 2,2-dimethyl-propionic acid 3′-{[2-(3-fluoro-4-methylsulfonamido-phenyl)-propionylamino]-methyl}-6′-trifluoromethyl-3,4,5,6-tetrahydro-2H-[1,2′]bipyridinyl-4-yl ester] | 45.2 nM | 1.5 nM | 2 nM |  |  |
| CC(C(=O)NCc1ccc(C(F)(F)F)nc1OCC1CCCC1)c1ccc(NS(C)(=O)=O)c(F)c1 (stereo not shown) [Example 161, N-(2-cyclopentylmethoxy-6-trifluoromethyl-pyridin-3-ylmethyl)-2-(3-fluoro-4-methylsulfonamido-phenyl)-propionamide] | 11.6 nM |  | 0.4 nM |  | Ki ([1]; Ki (rat) Cap., table 4, capsaicin): 0.7 nM |
| CC(C(=O)NCc1ccc(C(F)(F)F)nc1N1CCN(c2ncccc2Cl)CC1)c1ccc(NS(C)(=O)=O)c(F)c1 (stereo not shown) [Example 193, N-{2-[4-(3-chloro-pyridin-2-yl)-piperazin-1-yl]-6-trifluoromethyl-pyridin-3-ylmethyl}-2-(3-fluoro-4-methylsulfonamido-phenyl)-propionamide] |  | 3.2 nM | 2.1 nM | 69% |  |
| CCS(=O)(=O)Nc1ccc(C(C)C(=O)NCc2ccc(C(F)(F)F)nc2N2CCC(C)CC2)cc1F (stereo not shown) [Example 287, 2-(4-ethanesulfonylamino-3-fluoro-phenyl)-N-(4-methyl-6′-trifluoromethyl-3,4,5,6-tetrahydro-2H-[1,2′]bipyridinyl-3′-ylmethyl)-propionamide] | 189 nM | 3.5 nM | 4.4 nM |  |  |
| CC(C)OC1CCN(c2nc(C(F)(F)F)ccc2CNC(=O)C(C)c2ccc(NS(C)(=O)=O)c(F)c2)CC1 (stereo not shown) [Example 162, 2-(3-fluoro-4-methylsulfonamido-phenyl)-N-(4-isopropoxy-6′-trifluoromethyl-3,4,5,6-tetrahydro-2H-[1,2′]bipyridinyl-3′-ylmethyl)-propionamide] |  | 1.6 nM | 3 nM | 58% |  |
| CC(C(=O)NCc1ccc(C(F)(F)F)nc1)c1ccc(NS(C)(=O)=O)c(F)c1 (stereo not shown) [Example 215, 2-(3-fluoro-4-methylsulfonamido-phenyl)-N-(6-trifluoromethyl-pyridin-3-ylmethyl)-propionamide] |  |  |  |  | inhibition at 25 µM (VR1/TRPV1 receptor; @ 25 μM, read-out: inhibition in percent, IC50 (human) after pH stimulus): 15%; inhibition at 10 µM ([1]; @ 10 μM, read-out: inhibition in percent, Ki (rat) Cap.): 48%; inhibition at 10 µM (vanilloid receptor (VR1); CHO-K1, @ 10 μM, read-out: inhibition in percent, Ki (human) Cap.): 37% |
| CC(C(=O)NCc1ccc(C(F)(F)F)cc1N1CCOCC1)c1ccc(NS(C)(=O)=O)c(F)c1 (stereo not shown) [Example 33, 2-(3-fluoro-4-(methylsulfonamido)phenyl)-N-(2-morpholino-4-(trifluoromethyl)benzyl)propanamide] |  |  |  |  | IC50 (VR1/TRPV1 receptor; Table 2): 1380 nM; Ki ([1]; Table 2, displacement of capsaicin (100 nM), Cheng-Prusoff, read-out: Ki (rat)): 4.8 nM; Ki (vanilloid receptor (VR1); [5]): 7.2 nM |
| COc1ccc(N2CCN(c3cc(C(F)(F)F)ccc3CNC(=O)C(C)c3ccc(NS(C)(=O)=O)c(F)c3)CC2)cc1 (stereo not shown) [Example 249, 2-(3-fluoro-4-methylsulfonamido-phenyl)-N-{2-[4-(4-methoxy-phenyl)-piperazin-1-yl]-4-trifluoromethyl-benzyl}-propionamide] |  | 0.2 nM | 1.6 nM | 70% | inhibition at 0.1 µM (VR1/TRPV1 receptor; @ 0.1 μM, read-out: inhibition in percent, IC50 (human) after pH stimulus): 31% |
| COc1nc(C(F)(F)F)ccc1CNC(=O)C(C)c1ccc(NS(C)(=O)=O)c(F)c1 (stereo not shown) [Example 18, 2-(3-fluoro-4-(methylsulfonamido)phenyl)-N-((2-methoxy-6-(trifluoromethyl)pyridin-3-yl)methyl)propanamide] |  |  |  |  | IC50 (VR1/TRPV1 receptor; Table 2): 2710 nM; Ki ([1]; Ki (rat), Table 2, displacement of capsaicin (100 nM), Cheng-Prusoff): 47 nM; Ki (vanilloid receptor (VR1); [5]): 68.9 nM |
| CC1CCCN(c2nc(C(F)(F)F)ccc2CNC(=O)C(C)c2ccc(NS(C)(=O)=O)c(F)c2)C1 (stereo not shown) [Example 282, 2-(3-fluoro-4-methylsulfonamido-phenyl)-N-(3-methyl-6′-trifluoromethyl-3,4,5,6-tetrahydro-2H-[1,2′]bipyridinyl-3′-ylmethyl)-propionamide] |  | 1.2 nM | 0.8 nM | 57% | inhibition at 10 µM (VR1/TRPV1 receptor; [4]): 62% |

The next lines start with results.

| IC50 (VR1/TRPV1 receptor; table 4) | Ki [1, 2] | Ki (vanilloid receptor (VR1); [3]) | inhibition at 1 µM (VR1/TRPV1 receptor; [4]) | SMILES | further results |
| --- | --- | --- | --- | --- | --- |
| 337 nM | 5.1 nM | 16 nM |  | CCCCc1ccc(COc2nc(C(F)(F)F)ccc2CNC(=O)C(C)c2ccc(NS(C)(=O)=O)c(F)c2)cc1 (stereo not shown) [Example 243, N-[2-(4-butyl-benzyloxy)-6-trifluoromethyl-pyridin-3-ylmethyl]-2-(3-fluoro-4-methylsulfonamido-phenyl)-propionamide] |  |
| 39.2 nM | 2.4 nM | 3.4 nM |  | Cc1cccc(N2CCN(c3nc(C(F)(F)F)ccc3CNC(=O)C(C)c3ccc(NS(C)(=O)=O)c(F)c3)CC2)c1 (stereo not shown) [Example 220, 2-(3-fluoro-4-methylsulfonamido-phenyl)-N-[2-(4-m-tolyl-piperazin-1-yl)-6-trifluoromethyl-pyridin-3-ylmethyl]-propionamide] |  |
| 108 nM | 1.5 nM | 1.4 nM |  | CC(C(=O)NCc1ccc(C(F)(F)F)nc1N1CCN(c2ccccn2)CC1)c1ccc(NS(C)(=O)=O)c(F)c1 (stereo not shown) [Example 214, 2-(3-fluoro-4-methylsulfonamido-phenyl)-N-[2-(4-pyridin-2-yl-piperazin-1-yl)-6-trifluoromethyl-pyridin-3-ylmethyl]-propionamide] |  |
|  | 22.8 nM | 15.4 nM | 51% | CC(C(=O)NCc1ccc(C(F)(F)F)nc1N1CCC(CN(C)C)(c2ccccc2)CC1)c1ccc(NS(C)(=O)=O)c(F)c1 (stereo not shown) [Example 259, N-(4-dimethylaminomethyl-4-phenyl-6′-trifluoromethyl-3,4,5,6-tetrahydro-2H-[1,2′]bipyridinyl-3′-ylmethyl)-2-(3-fluoro-4-methylsulfonamido-phenyl)-propionamide] | inhibition at 10 µM (VR1/TRPV1 receptor; [4]): 47% |
| 37.6 nM | 0.8 nM | 1.4 nM |  | CC(C(=O)NCc1ccc(C(F)(F)F)cc1N1CCC(Cc2ccccc2)CC1)c1ccc(NS(C)(=O)=O)c(F)c1 (stereo not shown) [Example 231, N-[2-(4-benzyl-piperidin-1-yl)-4-trifluoromethyl-benzyl]-2-(3-fluoro-4-methylsulfonamido-phenyl)-propionamide] |  |
|  | 2 nM | 4.4 nM | 70% | CC(C(=O)NCc1ccc(C(C)(C)C)nc1OCc1ccccc1)c1ccc(NS(C)(=O)=O)c(F)c1 (stereo not shown) [Example 237, N-(2-benzyloxy-6-tert-butyl-pyridin-3-ylmethyl)-2-(3-fluoro-4-methylsulfonamido-phenyl)-propionamide] |  |
| 148 nM | 1.6 nM | 4 nM |  | Cc1cc(C(C)C(=O)NCc2ccc(C(F)(F)F)nc2OCc2ccccc2)ccc1NS(C)(=O)=O (stereo not shown) [Example 204, N-(2-benzyloxy-6-trifluoromethyl-pyridin-3-ylmethyl)-2-(4-methylsulfonamido-3-methyl-phenyl)-propionamide] |  |
| 85 nM | 2 nM | 2.2 nM |  | CC(C(=O)NCc1ccc(C(F)(F)F)nc1C=Cc1ccccc1)c1ccc(NS(C)(=O)=O)c(F)c1 (stereo not shown) [Example 191, 2-(3-fluoro-4-(methylsulfonamido)phenyl)-N-((2-styryl-6-(trifluoromethyl)pyridin-3-yl)methyl)propanamide] |  |
|  | 348 nM | 91 nM | 7% | CC(C(=O)NCc1ccc(C(F)(F)F)nc1N1CCC(=O)CC1)c1ccc(NS(C)(=O)=O)c(F)c1 (stereo not shown) [Example 227] | inhibition at 10 µM (VR1/TRPV1 receptor; [4]): 51% |
| 15.9 nM | 0.9 nM | 0.6 nM |  | Cc1ccc(CCc2nc(C(F)(F)F)ccc2CNC(=O)C(C)c2ccc(NS(C)(=O)=O)c(F)c2)cc1 (stereo not shown) [Example 264, 2-(3-fluoro-4-methylsulfonamido-phenyl)-N-[2-(2-p-tolyl-ethyl)-6-trifluoromethyl-pyridin-3-ylmethyl]-propionamide] |  |
|  | 0.4 nM | 0.7 nM | 51% | C[C@H](C(=O)NCc1ccc(C(F)(F)F)nc1-c1ccc(F)c(Cl)c1)c1ccc(NS(C)(=O)=O)c(F)c1 [Example 120, (S)-N-[2-(3-chloro-4-fluoro-phenyl)-6-trifluoromethyl-pyridin-3-ylmethyl]-2-(3-fluoro-4-methylsulfonamido-phenyl)-propionamide] |  |
| 203 nM | 10.9 nM | 15.8 nM |  | CC(C(=O)NCc1ccc(C(F)(F)F)nc1NCc1ccccc1)c1ccc(NS(C)(=O)=O)c(F)c1 (stereo not shown) [Example 115, N-(2-benzylamino-6-trifluoromethyl-pyridin-3-ylmethyl)-2-(3-fluoro-4-methylsulfonamido-phenyl)-propionamide] |  |
| 40.5 nM | 0.6 nM | 0.9 nM |  | CC(C(=O)NCc1ccc(C(F)(F)Cl)nc1OCc1ccccc1)c1ccc(NS(C)(=O)=O)c(F)c1 (stereo not shown) [Example 169, N-[2-benzyloxy-6-(chloro-difluoro-methyl)-pyridin-3-ylmethyl]-2-(3-fluoro-4-methylsulfonamido-phenyl)-propionamide] |  |
